Assay results as given in patent US7438931B2, “Methods and compositions for the treatment of angiogenic diseases” (The Regents of The University of Michigan, priority 1998, dated 2008).

Key:
[1] = Phase I trial: toxicity; assay type: in vivo, human
From the text: Six patients were to be enrolled at each dose level. After 4 patients were enrolled at level I, if one patient experienced dose-limiting toxicity (DLT) (defined as Hct<80% of baseline), 2 more patients were enrolled at level I. If no DLT was observed, patients were enrolled at the next dose level. Treatment was allowed to continue beyond induction of target copper deficiency, if the patients experienced a partial or complete clinical response or achieved clinical stable disease by the following definitions. Complete response is defined as the disappearance of all clinical and laboratory signs and symptoms of active disease. Partial response is defined as a 50% or greater reduction in the size of measurable lesions defined by the sum of the products of the longest perpendicular diameters of the lesions, with no new lesions or lesions increasing in size. Minor response is defined as a 25-49% reduction in the sum of the products of the longest perpendicular diameters of one or more measurable lesions, no increase in size of any lesions and no new lesions; stable disease is any change in tumor measurements not represented by the criteria for response or progressive disease, which is defined as an increase of 25% or more in the sum of the products of the longest perpendicular diameters of any measurable indicator lesions, compared to the smallest previous measurement or appearance of a new lesion. Because copper deficiency is not a cytotoxic treatment modality, the patients who provide information about the efficacy of TM for long-term therapy, in this population of patients with advanced cancer, are primarily those who remained within the target Cp window of (20±10)% of baseline for over 90 days, without disease progression
Complete blood counts, liver and renal function tests, urinalyses, and Cp level (by the oxidase method) were performed weekly for 16 weeks, then bi-weekly. Physical examinations and evaluations of toxicity were carried out every 2 weeks for 8 weeks, then every 4 weeks for the duration of therapy. Toxicity was evaluated using the National Cancer Institute Common Toxicity Criteria (Table 3). […] Nevertheless, therapy will be discontinued and the patient removed from the study if grade 3 or higher toxicities of any type are observed, whatever the probable etiology. For grade 2 toxicities, an attempt will be made to establish their etiology.

[2] = Stability of sucrose-TM complex vs pure TM in open air (OD467); assay type: physicochemical; conditions: after 3 months of storage in an open dish
Experimental: An example of such a stabilized thiomolybdate compound is tetrathiomolybdate stabilized by sucrose. To prepare the sucrose-ammonium tetrathiomolybdate complex, 25 grams of sucrose is dissolved in 20 ml of distilled water. 1 gram of ammonium tetrathiomolybdate (TM) is added and the mixture stirred under argon until the TM is solution. The water is then removed from the mixture by flash evaporation under high vacuum.
After 3 months of storage in an open dish, the sucrose powder retained 61% of the original drug as measured by the OD467, while the TM stored under the same conditions retained only 5% of its original OD467.

[3] = tested on: mouse sarcoma, MCA205, and a mouse melanoma, B16B16; test: Mouse tumor model, injected tumor cells in C57B1/6J mice; assay type: in vivo
Experimental: Under these guidelines, anti-angiogenesis therapeutic studies were conducted using TM in a mouse tumor model. This study involved subcutaneous or intramuscular injection of tumor cells into young adult C57B1/6J mice. Two tumors were used, a mouse sarcoma, MCA205, and a mouse melanoma, B16B16. The MCA 205 tumor cell suspension was injected subcutaneously into C57B16 mice. After the tumors were palpable, copper deficiency was induced by use of TM in half the animals, using Cp levels to monitor copper status. The other half were sham treated. Tumor growth was compared between the untreated control group and mice treated with sufficient TM to reduce Cp to about 10% of normal controls.

[4] = tested on: Cp level; test: TM loading dosing schedule and Cp reduction; assay type: in vivo, human; conditions: 20 mg tid with meals and a single dose of 60 mg between meals, vs 20 mg tid with meals and 20 mg tid between meals
Experimental: Therefore, this dosing schedule will be studied in a Phase II study. Three other loading doses of TM will also be studied: Level 1: 20 mg tid between meals and 20 mg tid with meals until Cp<20% (10 patients); Level 2: 25 mg tid between meals and 25 mg tid with meals until Cp<20% (10 patients); and Level 3: 30 mg tid between meals and 30 mg tid with meals until Cp<20% (10 patients).

[5] = tested on: copper toxicity; conditions: cited from earlier work
[6] = in vivo, iv; cited from earlier work
[7] = tested on: copper metabolism; test: Open label study of TM for initial treatment of Wilson's disease patients; assay type: in vivo, human
From the text: The inventors have carried out an open label study of the use of TM for initial treatment of neurologically presenting Wilson's disease patients for the past several years. The inventors have developed both a spectrophotometric and bioassay for the activity of the drug, to evaluate stability, and assure potency of the drug being administered (Brewer et al., 1991a; Brewer et al., 1994b). The drug slowly loses potency when exposed to air.
The inventors have now treated a total of 51 Wilson's disease patients with TM, all of whom presented with neurological or psychiatric disease, in an open label study. These patients were all diagnosed by standard criteria. […] Some of them were treated briefly with other agents prior to this trial. Two patients had psychiatric but not neurological symptoms.
With three exceptions in the earliest part of the study, all patients received a dose of 20 mg tid with meals, or qid with three meals and a snack. Thus, the only difference between a patient receiving 120 mg and 140 mg total dose is that the former was receiving 20 mg tid, or 60 mg, with meals, and the latter was receiving 20 mg qid, or 80 mg with meals plus a snack. The rest of the total daily dose was divided up into three equal doses and given between meals.
TM impacts quickly and favorably on copper metabolism, reducing the potentially toxic copper of the blood and theoretically, the rest of the body. The primary clinical objective is to gain control over copper toxicity while not allowing clinical worsening. In other words, the prime objective is to protect all neurological function that is present at the time therapy is started. This was evaluated weekly by quantitative neurological and speech exams. Methodology and the neurology rating scale system have been published (Young et al., 1986). During the weeks of TM administration, during which copper metabolism is being controlled, neurological function as evaluated by quantitative neurological exam, is protected.

[8] = among the seven anemia patients

## tetrathiomolybdate [TM]
[1]; Cp levels at or above 20% of baseline
  toxicities: no cardiac, pulmonary, GI, renal, hepatic, hematologic, infectious, skin, mucosal, or neurologic toxicities observed
[1]; Cp levels between 10-20% of baseline
  patients with mild (greater than 80% of baseline Hct) reversible anemia: 4 patients
[1]; Cp lowered to 10-20% of baseline for up to 17 months of treatment
  toxicity: remarkably non-toxic
[1]; Cp reduced to 15-20% of baseline
  toxicity: non-toxic
[1]; in vivo
  only drug-related toxicity observed: mild anemia in one patient
[1]; mild clinical copper deficiency over 8-15 months
  toxicities on long-term maintenance: No additional toxicities of any type were observed
[1]; one patient, without transfusion
  time for hematocrit to recover after stopping the drug: 5 to 7 days
[1]; several patients, within 30 minutes of TM ingestion
  other adverse effect: transient, occasional sulphur-smelling burping
[2]
  retained % of the original drug as measured by the OD467: 5%
[3]; TM sufficient to reduce Cp to about 10% of normal, 16 days of observation
  tumor growth: Tumor growth was slowed by the treatment, although not halted
[3]; TM-treated vs control mice
  tumor weight normalized to total weight of the animal: weighed significantly less than the tumors in control mice
[4]
  speed of Cp reduction: reduces the Cp level to <20% more rapidly
[5]; copper loaded sheep, 50 or 100 mg 2× weekly for up to 11 weeks
  tolerability of IV TM injections: tolerated up to 22 injections of TM without clinical problems
[5]; over 400 animals of commercial sheep flocks, prophylactic use
  adverse side effects: no adverse side effects
[6]
  excreted in feces: 5%
  excreted in urine: over 90%
  t1/2 of slow plasma disappearance: about 40 h
[7]; 45 patients treated eight weeks with TM as initial therapy
  cases of reversible anemia: 11.1%
[7]; [8]
  patients with reduction in platelet count: Three
  patients with reduction in white blood cell count: four
[7]; dose of 180 mg/day or over
  patients with overtreatment: 6 of 37
[7]; dose of 150 or lower
  patients with overtreatment: 1 of 13
[7]; first patient, tid with meals 7 days, then also tid between meals
  time to close the plasma copper-molybdenum gap (free copper reduced to zero): 16 days
[7]; human, in vivo
  patients with elevation of transaminase values (serum AST and ALT): four
  patients with reversible anemia/bone marrow depression: seven
[7]; initial 8 weeks of TM therapy
  quantitative speech exam scores: No patient shows significant (more than 2.0 units) reduction in scores
[7]; late stages of TM therapy, starting value 27
  TCA soluble fraction of plasma copper: 15 µg/dL
[7]; patients with anemia
  fall in hemoglobin, average: 3.4 g %
[7]; weeks of TM administration, quantitative neurological exam
  patients with neurological worsening (change of more than 5 units): 4 % of the sample
